Source: ChEMBL document CHEMBL1142123, “Guttiferones K and L, antiproliferative compounds of Rheedia calcicola from the Madagascar rain forest” (J Nat Prod, 2007)
Converted amounts (≈) assume the structure as drawn.

Tested on: A2780
Test: Antiproliferative activity against human A2780 cells
Type: functional, cell-based

**Q.** With `CC(C)=CCC[C@@]1(C)[C@H](CC=C(C)C)C[C@]2(CC=C(C)C)C(=O)[C@@]1(CC=C(C)C)C(=O)C(C(=O)c1cc(O)c(O)cc1O)=C2O` [GUTTIFERONE L] as the compound, how does the IC50 read?
**A.** Its IC50 is 3 µg/mL (≈ 4.85 µM).
